The test system of one data set is TSPO. As to the kind of experiment: Ex vivo autoradiography, U87MG-Luc2 orthotopic glioma bearing mice. In kind it is in vivo, mouse. As to the method: To investigate the behavior of [^18F]-AB5186 6 in vivo, ex vivo autoradiography was performed using mice bearing a U87MG-Luc2 orthotopic model of human glioblastoma. Animals were pre-treated with either vehicle (n = 4) or 1 mg kg^–1 unlabelled PK11195 (n = 4) administered intravenously 10 min prior to [^18F]-AB5186 6 intravenous injection. Animals were killed and brains were removed 20 min after the radiotracer was given and frozen. Cryostat sections were then used to generate autoradiograms. […] The non-tumour bearing contralateral side of the brain lacked proliferating cells and minimal TSPO expression and immunolabelled microglia were visible (data not shown). Under normal circumstances microglia express low levels of TSPO in the brain. […]
temperature. Non-specific binding was determined in adjacent sections by incubating with [18F]- AB5186 6 in the presence of 10 µM PK11195 (Tocris, UK). […]
Following this, the tissues were washed with 0.1% Tween® 20 in TBS (2 × 5 min) and a secondary one hour incubation at room temperature was performed using Dako horseradish-peroxidase labelled anti-mouse or anti-rabbit polymers. The sections were once again washed using 0.1% Tween® 20 in TBS (2 × 5 min) and the presence of antibody was detected using the 3,3’- diaminobenzidine chromagen solution diluted in Dako DAB+ substrate buffer. […]

Data set [1] in a line: Metabolite analysis of arterial blood samples from baboon (parent fraction). In kind it is in vivo, baboon (Papio anubis). To be noted: baboon arterial plasma, 60 minutes post-injection. As to the method: Following PET reconstruction and co-registration to an MRI (Fig. 7a), a time–activity curve for the tracer in the whole brain was established (Fig. 7b). […]
generated and SUV determined as the concentration in the VOI divided by the injected dose divided […]
software (GraphPad Softare Inc).
Arterial blood samples were collected from the baboon every 45 s until 6 min after injection of […]
exception of the samples collected for metabolite analysis (3.5 mL each), all blood samples were 1 mL each. Samples for metabolite analysis were collected at 6, 15, 30, 60, 120, 150 and 240 min after radiotracer bolus injection. After blood collection, all samples were kept on ice until analysed.
Radioactivity in whole blood and plasma was assessed with a well-type γ-counter using a 400–1400 keV window (Perkin Elmer Wallac 2480, USA). Plasma samples were processed by acetonitrile denaturation and analysed by HPLC on a Luna C18 column with a mobile phase of MeOH/H2O-Et3N (0.2%) 80/20 at a flow rate of 4 mL/min to estimate the parent fraction.

Each structure is given as a SMILES string.

In the case of `CCN(CC)C(=O)c1nc2ccccc2c(-c2ccccc2)c1C[18F]` [[^18F]-AB5186 6], the “binding (tumour to contralateral optical density ratio) after PK11195 blockade” value in the data set on TSPO (1 mg kg^-1 unlabelled PK11195 i.v. 10 min before tracer, P = 0.0002) is listed as “significantly reduced”. Also, in the data set with TSPO (ex vivo autoradiography, vehicle pre-treatment, brains removed 20 min after tracer i.v.), the “total binding, tumour tissue compared to contralateral region” value is on record as “substantially higher”. Moreover, in data set [1], the parent still intact is listed as 29.8%.

The values above are taken from publication PMC5667507, “A novel ^18F-labelled high affinity agent for PET imaging of the translocator protein” (Chemical Science, 2015).
